According to US20240261375A1, “PHARMACEUTICAL COMPOSITION FOR TREATING OR PREVENTING DISORDER ASSOCIATED WITH ADMINISTRATION OF ANTICANCER AGENT” (LTT BIO-PHARMA CO., LTD., priority 2021, published 2024):

Experiments:
[1] = test system: intraepidermal nerve fiber of OXA-treated rats; assay: Assessment of density of intraepidermal nerve fiber (PGP9.5 staining); format: in vivo, rat; conditions: OXA+PC-SOD 1 mg/kg; FIG. 3
Description: Rat epidermis tissue was fixed with a 4% paraformaldehyde fixative and washed with PBS 24 hours later, and a frozen block was prepared. A frozen slice having a thickness of 50 μm was prepared from the prepared block by using Cryostat (CM3050S, Leica Biosystems), and a 0.2% Triton-X solution was added as permeabilization treatment to allow the mixture to react for 10 minutes. Nerve fiber was allowed to react with Anti-PGP9.5 antibody (Ultraclone Ltd.) at 4° C. overnight, then it was washed with PBST, and allowed to react with a secondary fluorescence antibody (Goat anti-Rabbit IgG Alexa Fluor 488, Invitrogen). After the reaction was done at room temperature for one hour, the nerve fiber was washed, rinsed, followed by dropwise addition of […] with DAPI H-1200 (Vector Laboratories), and enclosed, and two to three images of each sample captured at 200-fold magnification were saved (Scale bar=100 μm) by using a fluorescence microscope BZ-X800 (Keyence Corporation).

[2] = test system: liver of OXA-treated rats; assay: Pathological assessment of liver disorder caused by oxaliplatin (HE staining); format: in vivo, rat; conditions: PC-SOD 1 mg/kg, mangafodipir dose not given, FIG. 5
From the text: A liver tissue was collected and fixed with 10% neutral buffered formalin to prepare a paraffin block by using Histos 5 (Milestone) and an embedding center (EG1160, Leica). The sample block was thinly sliced at a thickness of 3 μm by using a microtome (MR2245, Leica) to prepare a slide. The prepared slide was stained by HE staining, enclosed, and observed at 200 and 400-fold magnifications by using the optical microscope function of All-in-One Fluorescence Microscope (BZ-X800, Keyence Corporation). Observation and assessment were performed by observing the whole section. Two to four representative tissue images were randomly taken up, and alteration in the tissue structure, such as inflammation and necrosis, was observed and assessed (Scale bar=200 μm).

For “lecithinized superoxide dismutase [PC-SOD]”, the “decrease in density of intraepidermal nerve fiber caused by OXA” value [1] was “a suppressive effect on the decrease in density of intraepidermal nerve fiber caused by OXA was observed” and the “necrosis of liver cells caused by OXA” value [2] was “a suppressive effect on necrosis of liver cells caused by OXA was shown”.
